In patent US20220081387A1, “METHODS FOR PREPARING AMMONIUM TETRATHIOMOLYBDATE” (Alexion Pharmaceuticals, Inc., priority 2019, published 2022):

Assay: Long-term stability study of ATTM samples, determined by HPLC
Type: physicochemical
Description: ATTM Samples 1 and 2 were prepared essentially according to procedure in Example 1 starting with 12 kg of ammonium heptamolybdate. The isolated product was packed and stored immediately. Specifically, the samples were packaged corresponding to the packaging of the bulk material under argon in transparent anti-static polyethylene plastic bags, 90 10 10, 110 mm×170 mm, and the bags containing the samples were sealed with a plastic tie, and then subsequently packed in welded aluminium bags along with a drying agent in-between the two bags. Additional samples were packaged with ambient atmosphere in transparent anti-static polyethylene plastic bags, 90 10 10, 110 mm×170 mm. The bags containing the samples were sealed with a plastic tie, and then subsequently packed in welded aluminium bags along with a drying agent in-between the two bags.

[NH4+].[NH4+].[SH-].[SH-].[S]=[Mo]=[S] [Sample 1, ammonium tetrathiomolybdate]
0.96 w/w %: TM3 (5 °C, Ar, 3 mo)
1.05 w/w %: TM3 (−20 °C, Ar, 3 mo)
0.88 w/w %: TM3 (−20 °C, Ar, 6 mo)
99.0 w/w %: ATTM (5 °C, Ar, 6 mo) | ATTM (−20 °C, Air, 6 mo)
99.5 w/w %: ATTM (−20 °C, Ar, 3 mo)
<0.05 w/w %: (NH4)6Mo7O24 (5 °C, Air, 3 mo) | Dimer S6 (5 °C, Air, 3 mo) | TM1 (5 °C, Air, 3 mo) | TM2 (5 °C, Air, 3 mo) | (NH4)6Mo7O24 (5 °C, Air, 6 mo) | Dimer S6 (5 °C, Air, 6 mo) | TM1 (5 °C, Air, 6 mo) | TM2 (5 °C, Air, 6 mo) | (NH4)6Mo7O24 (5 °C, Air, Initial) | Dimer S6 (5 °C, Air, Initial) | TM1 (5 °C, Air, Initial) | TM2 (5 °C, Air, Initial) | (NH4)6Mo7O24 (5 °C, Ar, 3 mo) | Dimer S6 (5 °C, Ar, 3 mo) | TM1 (5 °C, Ar, 3 mo) | TM2 (5 °C, Ar, 3 mo) | (NH4)6Mo7O24 (5 °C, Ar, 6 mo) | Dimer S6 (5 °C, Ar, 6 mo) | TM1 (5 °C, Ar, 6 mo) | TM2 (5 °C, Ar, 6 mo) | (NH4)6Mo7O24 (5 °C, Ar, Initial) | Dimer S6 (5 °C, Ar, Initial) | TM1 (5 °C, Ar, Initial) | TM2 (5 °C, Ar, Initial) | (NH4)6Mo7O24 (−20 °C, Air, 3 mo) | Dimer S6 (−20 °C, Air, 3 mo) | TM1 (−20 °C, Air, 3 mo) | TM2 (−20 °C, Air, 3 mo) | (NH4)6Mo7O24 (−20 °C, Air, 6 mo) | Dimer S6 (−20 °C, Air, 6 mo) | TM1 (−20 °C, Air, 6 mo) | TM2 (−20 °C, Air, 6 mo) | (NH4)6Mo7O24 (−20 °C, Air, Initial) | Dimer S6 (−20 °C, Air, Initial) | TM1 (−20 °C, Air, Initial) | TM2 (−20 °C, Air, Initial) | (NH4)6Mo7O24 (−20 °C, Ar, 3 mo) | Dimer S6 (−20 °C, Ar, 3 mo) | TM1 (−20 °C, Ar, 3 mo) | TM2 (−20 °C, Ar, 3 mo) | (NH4)6Mo7O24 (−20 °C, Ar, 6 mo) | Dimer S6 (−20 °C, Ar, 6 mo) | TM1 (−20 °C, Ar, 6 mo) | TM2 (−20 °C, Ar, 6 mo) | (NH4)6Mo7O24 (−20 °C, Ar, Initial) | Dimer S6 (−20 °C, Ar, Initial) | TM1 (−20 °C, Ar, Initial) | TM2 (−20 °C, Ar, Initial)
99.3 w/w %: ATTM (−20 °C, Air, 3 mo)
<0.1 w/w %: Insoluble materials (5 °C, Air, 6 mo) | Insoluble materials (5 °C, Air, Initial) | Insoluble materials (5 °C, Ar, 6 mo) | Insoluble materials (5 °C, Ar, Initial) | Insoluble materials (−20 °C, Air, 6 mo) | Insoluble materials (−20 °C, Air, Initial) | Insoluble materials (−20 °C, Ar, 6 mo) | Insoluble materials (−20 °C, Ar, Initial)
98.8 w/w %: ATTM (5 °C, Air, Initial) | ATTM (5 °C, Ar, Initial) | ATTM (−20 °C, Air, Initial) | ATTM (−20 °C, Ar, Initial)
0.77 w/w %: TM3 (5 °C, Air, Initial) | TM3 (5 °C, Ar, Initial) | TM3 (−20 °C, Air, Initial) | TM3 (−20 °C, Ar, Initial)
0.97 w/w %: TM3 (5 °C, Ar, 6 mo)
98.6 w/w %: ATTM (5 °C, Air, 6 mo)
0.82 w/w %: TM3 (−20 °C, Air, 6 mo)
99.1 w/w %: ATTM (5 °C, Ar, 3 mo) | ATTM (−20 °C, Ar, 6 mo)
0.94 w/w %: TM3 (5 °C, Air, 6 mo)
99.2 w/w %: ATTM (5 °C, Air, 3 mo)
0.93 w/w %: TM3 (5 °C, Air, 3 mo) | TM3 (−20 °C, Air, 3 mo)

[NH4+].[NH4+].[SH-].[SH-].[S]=[Mo]=[S] [Sample 2, ammonium tetrathiomolybdate]
1.07 w/w %: TM3 (−20 °C, Ar, 3 mo)
1.01 w/w %: TM3 (5 °C, Air, Initial) | TM3 (5 °C, Ar, Initial) | TM3 (−20 °C, Air, Initial) | TM3 (−20 °C, Ar, Initial)
99.1 w/w %: ATTM (−20 °C, Ar, 3 mo)
98.6 w/w %: ATTM (5 °C, Air, 3 mo)
0.95 w/w %: TM3 (5 °C, Air, 6 mo)
<0.05 w/w %: (NH4)6Mo7O24 (5 °C, Air, 3 mo) | Dimer S6 (5 °C, Air, 3 mo) | TM1 (5 °C, Air, 3 mo) | TM2 (5 °C, Air, 3 mo) | (NH4)6Mo7O24 (5 °C, Air, 6 mo) | Dimer S6 (5 °C, Air, 6 mo) | TM1 (5 °C, Air, 6 mo) | TM2 (5 °C, Air, 6 mo) | (NH4)6Mo7O24 (5 °C, Air, Initial) | Dimer S6 (5 °C, Air, Initial) | TM1 (5 °C, Air, Initial) | TM2 (5 °C, Air, Initial) | (NH4)6Mo7O24 (5 °C, Ar, 3 mo) | Dimer S6 (5 °C, Ar, 3 mo) | TM1 (5 °C, Ar, 3 mo) | TM2 (5 °C, Ar, 3 mo) | (NH4)6Mo7O24 (5 °C, Ar, 6 mo) | Dimer S6 (5 °C, Ar, 6 mo) | TM1 (5 °C, Ar, 6 mo) | TM2 (5 °C, Ar, 6 mo) | (NH4)6Mo7O24 (5 °C, Ar, Initial) | Dimer S6 (5 °C, Ar, Initial) | TM1 (5 °C, Ar, Initial) | TM2 (5 °C, Ar, Initial) | (NH4)6Mo7O24 (−20 °C, Air, 3 mo) | Dimer S6 (−20 °C, Air, 3 mo) | TM1 (−20 °C, Air, 3 mo) | TM2 (−20 °C, Air, 3 mo) | (NH4)6Mo7O24 (−20 °C, Air, 6 mo) | Dimer S6 (−20 °C, Air, 6 mo) | TM1 (−20 °C, Air, 6 mo) | TM2 (−20 °C, Air, 6 mo) | (NH4)6Mo7O24 (−20 °C, Air, Initial) | Dimer S6 (−20 °C, Air, Initial) | TM1 (−20 °C, Air, Initial) | TM2 (−20 °C, Air, Initial) | (NH4)6Mo7O24 (−20 °C, Ar, 3 mo) | Dimer S6 (−20 °C, Ar, 3 mo) | TM1 (−20 °C, Ar, 3 mo) | TM2 (−20 °C, Ar, 3 mo) | (NH4)6Mo7O24 (−20 °C, Ar, 6 mo) | Dimer S6 (−20 °C, Ar, 6 mo) | TM1 (−20 °C, Ar, 6 mo) | TM2 (−20 °C, Ar, 6 mo) | (NH4)6Mo7O24 (−20 °C, Ar, Initial) | Dimer S6 (−20 °C, Ar, Initial) | TM1 (−20 °C, Ar, Initial) | TM2 (−20 °C, Ar, Initial)
98.2 w/w %: ATTM (5 °C, Ar, 6 mo) | ATTM (−20 °C, Air, 6 mo) | ATTM (−20 °C, Ar, 6 mo)
99.0 w/w %: ATTM (5 °C, Ar, 3 mo)
0.98 w/w %: TM3 (−20 °C, Ar, 6 mo)
1.13 w/w %: TM3 (5 °C, Air, 3 mo) | TM3 (−20 °C, Air, 6 mo)
0.99 w/w %: TM3 (5 °C, Ar, 3 mo)
98.8 w/w %: ATTM (5 °C, Air, Initial) | ATTM (5 °C, Ar, Initial) | ATTM (−20 °C, Air, Initial) | ATTM (−20 °C, Ar, Initial)
1.03 w/w %: TM3 (5 °C, Ar, 6 mo)
0.92 w/w %: TM3 (−20 °C, Air, 3 mo)
<0.1 w/w %: Insoluble materials (5 °C, Air, 6 mo) | Insoluble materials (5 °C, Air, Initial) | Insoluble materials (5 °C, Ar, 6 mo) | Insoluble materials (5 °C, Ar, Initial) | Insoluble materials (−20 °C, Air, 6 mo) | Insoluble materials (−20 °C, Air, Initial) | Insoluble materials (−20 °C, Ar, 6 mo) | Insoluble materials (−20 °C, Ar, Initial)
97.9 w/w %: ATTM (5 °C, Air, 6 mo)
99.4 w/w %: ATTM (−20 °C, Air, 3 mo)
